Test results as given in patent publication US11510980B2, “Brartemicin analogues” (VICTORIA LINK LTD, priority 2017, dated 2022).
Entries after “also recorded” stand apart in the source; their conditions may differ.

Experiments:
[1] = test system: OT-II CD4+ T-cells co-cultured with GM-CSF BMDMs; assay: BMDM / OT-II T-cell co-culture, OVA-specific IFN-γ and IL-17; format: cell-based, mice; settings: 48 hours
Method: Cytokine analysis: IL-1β, IFN-γ, IL-6, TNF-α (BD Biosciences), IL-17, and MIP-2 (R&D) levels were determined via sandwich ELISA according to the manufacturer's instructions.
BMDC-OT-II T-cell co-cuture: A mixture of OT-II cells (1×10^5 cells/100 μL) and BMDCs (1×10^4 cells/100 μL) were stimulated with plate coated glycolipd (0.1 nmol/well) or iPrOH only (20 μL/well) and increasing concentrations of OVA (0, 0.1, or 1 μM). After 48 or 72 hours, the supernatant was collected and ELISA was employed to determine the levels of IFN-γ and IL-17.
To evaluate the potential of C18dMeBrar (9a) as a Th1/Th17 adjuvant, GM-CSF BMDMs and T-cells from OVA-specific OT-II TCR Tg mice were co-cultured on plates coated with TDM (0.01 nmol/well), TDB (0.01 nmol/well), or C18dMeBrar (9a, 0.01 nmol/well). The cells were stimulated with OVA (0, 0.1, and 1 μM), and after 48 hours, the supernatant was collected. Levels of the key Th1 cytokine IFN-γ, which is indicative of an enhanced host defence response, and the Th17 cytokine IL-17 were measured via ELISA (FIG. 3). […] Antigen-specific secretion of IFN-γ however, was not enhanced by treatment with 9a.

mMincle+FcRγ = target: T1, mMincle+FcRγ (Mus musculus, UniProt Q9R0Q8); assay: 2B4-NFAT-GFP reporter cells expressing mMincle+FcRγ; format: cell-based, murine; settings: ligand-coated plates 0.01, 0.1 or 1 nmol/well, 18 hours
T1 construct: expressed in transfected cells; host or cells: 2B4-NFAT-GFP reporter cells
T1 sequence (Q9R0Q8 1-214): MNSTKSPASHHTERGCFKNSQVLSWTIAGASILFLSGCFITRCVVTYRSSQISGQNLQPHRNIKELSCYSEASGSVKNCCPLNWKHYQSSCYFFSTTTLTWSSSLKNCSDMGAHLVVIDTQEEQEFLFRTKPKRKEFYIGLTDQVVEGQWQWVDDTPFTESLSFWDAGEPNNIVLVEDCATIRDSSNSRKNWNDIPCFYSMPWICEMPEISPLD
T1 sequence (P20491 19-86 partner): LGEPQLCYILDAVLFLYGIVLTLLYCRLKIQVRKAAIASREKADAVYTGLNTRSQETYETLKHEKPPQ
Method: (§1) Preparation of ligand-coated plates: Brartemicin analogues 9a-9i, TDM (Carbosynth, Sigma Aldrich), and TDB^14 were dissolved in CHCl3:MeOH (2:1, 1 mM), diluted in isopropanol ([…]) and added to 96-well plates (20 μL/well). The solvents were evaporated and the coated plates were used immediately.
(§2) 2B4-NFAT-GFP reporter cells: 2B4-NFAT-GFP reporter cells expressing mMincle+FcRγ, hMincle+FcRγ, or FcRγ only have been previously described. […] The reporter cells were harvested, stained with propidium iodide, and analysed for NFAT-GFP expression using flow cytometry (FACS Calibur).
(§3) To determine whether the Mincle binding observed in Example 1 correlated with cellular activation, nuclear factor of activated T cells (NFAT)-green fluorescent protein (GFP) reporter cells expressing mMincle or hMincle coupled to FcRγ were stimulated using plates coated with TDM, TDB, brartemicin (9i), or analogues 9a-9h.
(§4) Activation of the reporter cells was measured through the production of GFP, which was monitored by flow cytometry (FIGS. 1b and 3c).
(§5) With the compounds 43a-h in hand, the ability of these analogues to bind and signal through Mincle was assessed (FIG. 5). Accordingly, NFAT-GFP reporter cells expressing mMincle+FcRγ, hMincle+FcRγ, or FcRγ-only were stimulated with the 2G-brartemicin analogues 43a-h, TDB, iPrOH, or the p-OC18H37 substituted analogue, 9f. Reporter cell activation was measured by the production of NFAT-GFP, which was analysed by flow cytometry.

hMincle+FcRγ = target: T2, hMincle+FcRγ (Homo sapiens, UniProt Q9ULY5); assay: 2B4-NFAT-GFP reporter cells expressing hMincle+FcRγ; format: cell-based; settings: ligand-coated plates 0.01, 0.1 or 1 nmol/well, 18 hours
T2 construct: expressed in transfected cells; host or cells: 2B4-NFAT-GFP reporter cells
T2 sequence (Q9ULY5 1-219): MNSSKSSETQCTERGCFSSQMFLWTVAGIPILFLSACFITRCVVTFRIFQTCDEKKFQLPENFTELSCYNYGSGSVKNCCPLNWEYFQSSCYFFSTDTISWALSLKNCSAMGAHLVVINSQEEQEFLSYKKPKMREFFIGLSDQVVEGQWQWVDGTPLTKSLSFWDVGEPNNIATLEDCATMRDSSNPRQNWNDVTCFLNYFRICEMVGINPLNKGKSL
Method: as §1, §2, §3, §4, §5

mMincle-Ig = target: T3, mMincle-Ig (Mus musculus, UniProt Q9R0Q8); assay: In vitro Mincle binding assay (ELISA) with mMincle-Ig fusion protein; parameters: species or system murine; settings: plate-coated ligand 0.1 nmol/well
T3 construct: using soluble Mincle-Ig fusion-proteins; made in house
T3 sequence (Q9R0Q8 46-214 limits assumed): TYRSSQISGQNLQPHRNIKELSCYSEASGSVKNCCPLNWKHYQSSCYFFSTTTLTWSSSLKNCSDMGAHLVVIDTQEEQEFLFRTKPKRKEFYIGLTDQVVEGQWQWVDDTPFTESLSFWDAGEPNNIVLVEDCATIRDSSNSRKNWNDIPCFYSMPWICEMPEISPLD
Method: as §1
In vitro Mincle binding assay: The preparation of mMincle- and hMincle-Ig fusion proteins have been previously described. Plate-coated glycolipids 9a-i, TDB, and TDM were incubated with hMincle-Ig, mMincle-Ig, or hIgG1-Fc (Ig) [3 μg/mL in binding buffer (20 mM Tris-HCl, 150 mM NaCl, 1 mM CaCl2), 2 mM MgCl2, pH 7.0)]. Detection of bound protein was achieved via incubation with anti-hIgG-HRP followed by the addition of a colorimetric substrate and measurement of OD at 450 nm. Background was accounted for by subtracting the hIgG1-Fc OD450 values from fusion protein OD450 values
The synthesised brartemicin analogues prepared in Example 1 were first tested for their ability to bind to both human and murine Mincle in an enzyme-linked immunosorbent assay (ELISA) using soluble Mincle-Ig fusion-proteins (FIG. 1a).

[2] = 0.01 nmol/well, OVA 0, 0.1 and 1 μM, ELISA

activation of mMincle NFAT-GFP reporter cells (GFP by flow cytometry) (mMincle+FcRγ): strongly activated
binding to mMincle-Ig (ELISA, OD at 450 nm) (mMincle-Ig): good binding
Substance: 6,6′-Di-O-(2-hydroxy-4-octabenzyloxybenzoyl)-α,α′-D-trehalose [9a]
OVA-specific production of IL-17 [1, 2]: significantly augmented
antigen-specific secretion of IFN-γ [1, 2]: not enhanced
adjuvant activity in vitro ([1]; 0.1 nmol/well, OVA323-339 peptide 0, 0.1 and 1 μM): displays adjuvant activity in vitro
activation of hMincle NFAT-GFP reporter cells (GFP by flow cytometry) (hMincle+FcRγ): strongly activated; also recorded: best able to activate hMincle
